Common to all, as to assay: NCI-60 cell line screen, 48 h
The test system of assay [1] is K-562 leukemia.
Assay [2] concerns SN12C renal.
Assay [3] has as its system RPMI-8226 leukemia.
Assay [4] concerns SF-268 CNS.
Assay [5] relates to TK-10 renal.
In assay [6] the test system is HT29 colon.
The test system of assay [7] is COLO 205 colon.
Assay [8] relates to SNB-19 CNS.
For assay [9], the system named is OVCAR-5 ovarian.
For assay [10], the system named is UACC-62 melanoma.

Values joined by “and” are separate entries in the source; they are usually repeats but may differ in a detail not shown here. Equal values may be shown once.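 The compound was tested at five concentrations on cells cultured in 96-well plates, with a 48-hour exposure period. GI50: concentration for 50% inhibition of growth. TGI: total growth inhibition.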

For `CCCCCCCCCC(=O)NC(Cc1ccc(O)cc1)C(=O)NCCCNCCCCNCCCNC(=O)[C@@H](N)CCCN=C(N)N` (some centres undefined), the TGI in assay [1] was more than 100 µM; in assay [2], more than 100 µM; in [3] it was more than 100 µM; in [4], more than 100000 nM; in [5], more than 100 µM; in assay [6], more than 100 µM. The TGI was 34.5 µM in assay [7] and more than 100 µM in assay [8].

In the case of `O=C(O)c1ccc(Nc2nc3nn(Cc4ccccc4)cc3c(=O)s2)cc1`, the TGI in assay [1] is more than 100 µM; in assay [2], more than 100 µM; in assay [3], more than 100 µM; in assay [4] it was more than 100000 nM; in assay [5] it was more than 100 µM; in assay [7], more than 100 µM. Besides, the TGI in [8] and in [9] was more than 100 µM each time.

In the case of `CNCCCNc1c2ccccc2nc2cccc([N+](=O)[O-])c12`, the TGI in [2] was < 0.0318 µM and 0.0181 µM; in [4], 16.6 nM and 21.1 nM; in assay [5], 0.0327 µM; in assay [6], 0.0185 µM; in assay [7], 0.00586 µM; in assay [10] it was 0.00942 µM. Besides, the TGI in assay [8] was 0.0309 µM and 0.13 µM; in [9], 0.022 µM.

Turning to `CN(C)CCCCCNc1c2ccccc2nc2cccc([N+](=O)[O-])c12`, the GI50 in assay [1] was 2.12 nM; in assay [6], 0.00502 µM; in [7], 5.91 nM; in [10], 0.00522 µM; in assay [9], 0.00264 µM. The TGI was more than 0.0945 µM in assay [1]; > 0.1 µM and 0.0188 µM in assay [3]; 12.5 nM and 18 nM in [4]; 0.0207 µM in [5]; 0.00839 µM in assay [6]; 0.00173 µM in assay [7]. For the same compound, the TGI in assay [10] is 0.00404 µM; in assay [8] it was > 0.0231 µM and 0.0317 µM; in assay [9] it was 0.0115 µM.

In the case of `CC12OC(C(=O)C13CCC3)C1C(=O)c3ccc4c(ccc5ccccc54)c3C(=O)C12` (centres undefined), the GI50 in assay [1] is 3270 nM; in assay [2] it was 2720 nM; in [4], 11.6 µM; in assay [5] it was 4.29 µM; in assay [6], 3.85 µM; in [7] it was 11200 nM. For the same compound, the results for the GI50 in [10], in assay [8] and in [9] were 35.4 µM, 21.5 µM and 17.8 µM, respectively. Besides, the TGI worked out at 16 µM in assay [1]; 19.6 µM in assay [2]; 32900 nM in assay [4]; 15 µM in [5]; 19.2 µM in assay [6]; 33.1 µM in [7]. For the same compound, the TGI is more than 100 µM in assay [10], 65.7 µM in assay [8] and 33.9 µM in assay [9].

As to `C=Cc1c(C)c2cc3[nH]c(cc4nc(cc5nc(cc1[nH]2)C(C)=C5CCC(=O)N(CC)CC)C(CCC(=O)N(CC)CC)=C4C)c(C)c3C=C`, the TGI in [1], in assay [2], in [5], in assay [6], in assay [10] and in [9] was more than 100 µM in each case.

In the case of `CCN(CC)c1ccc2nc3ccc(N=Nc4ccc(O)cc4)cc3[n+](-c3ccccc3)c2c1`, the GI50 in [2] was 10700 nM; in assay [3] it was 3.85 µM; in [4], 5 µM; in assay [5] it was 3.15 µM; in assay [6], 3.15 µM; in assay [7] it was 1260 nM. Moreover, the GI50 in [10] was 4.14 µM; in [8], 11 µM; in [9], 20.8 µM. Further, the TGI was 36.7 µM in assay [2]; more than 100 µM in [3]; more than 100000 nM in assay [4]; more than 100 µM in [5]; more than 100 µM in assay [6]; 3.1 µM in [7]. Further, the TGI is 23.3 µM in assay [10], 22.9 µM in assay [8] and 73.7 µM in assay [9].

Regarding `COc1ccc2c(c1)[n+](=O)c(C(=O)CC(=O)C(=O)Nc1cccc(C)c1C)c(C)n2[O-]`, the TGI in assay [1] was more than 100 µM; in assay [2], more than 100 µM; in assay [3] it was more than 100 µM; in assay [4], more than 100000 nM; in assay [5], more than 100 µM; in assay [6], more than 100 µM. The TGI in [10], in assay [8] and in assay [9] was more than 100 µM each time.

With `C/C(=N\NC(N)=S)c1sc(-n2nc(-c3ccccc3)cc2-c2ccccc2)nc1C`, the TGI in assay [2] is more than 100 µM; in [3] it was 61.2 µM; in [4] it was more than 100000 nM; in [5], more than 100 µM; in assay [6], more than 100 µM; in [7], more than 100 µM. In addition, the TGI in assay [10], in [8] and in assay [9] was more than 100 µM throughout.

For the compound `CCC[CH2][Sn]([CH2]CCC)([O]C(=O)c1cccc(F)c1F)[O]C(=O)c1cccc(F)c1F`, the GI50 was 207 nM in assay [1]; 1190 nM in assay [2]; 0.838 µM in [4]; 1.72 µM in [5]; 1.62 µM in assay [6]; 962 nM in assay [7]. Besides, the GI50 in assay [10] was 1.22 µM; in [8], 1.48 µM; in assay [9], 1.88 µM. In addition, the TGI is 1.08 µM in assay [1]; 2.44 µM in [2]; 2150 nM in assay [4]; 3.11 µM in assay [5]; 2.99 µM in assay [6]; 2.13 µM in assay [7]. Moreover, the TGI is 2.46 µM in assay [10], 2.8 µM in assay [8] and 3.28 µM in assay [9].

For `C[C@H](NC(=O)c1c(C(F)F)nn(C)c1Oc1cccc(C(F)(F)F)c1)c1ccc(C(=O)O)cc1`, the GI50 in assay [2] is more than 100000 nM; in [3], more than 100 µM; in assay [4] it was more than 100 µM; in assay [5] it was more than 100 µM; in assay [6], more than 100 µM; in assay [7] it was more than 100000 nM. Further, the GI50 in assay [10], in assay [8] and in assay [9] was more than 100 µM each time. The TGI in assay [2] is more than 100 µM; in [3] it was more than 100 µM; in assay [4], more than 100000 nM; in assay [5] it was more than 100 µM; in assay [6], more than 100 µM; in assay [7], more than 100 µM. The TGI in assay [10], in [8] and in [9] was more than 100 µM each time.

The values are drawn from PubChem BioAssay (NCI).
